The record followed here is patent publication US12421253B2 (Mirati Therapeutics, Inc., priority 2020, dated 2025).

Assay [1] deals with KRas^Q61H (Homo sapiens, UniProt P01116, Q61H). Nature of the assay: biochemical.
Experimental: (§6) The ability of a compound to bind to KRas was measured using a TR-FRET displacement assay. […] After a 60-minute incubation at room temperature, the reaction was measured using a BMG LABTECH CLARIO star Plus via TR-FRET. […] The POC values were fit to a 4-parameter IC50 equation and the IC50 value reported.
In assay [2] the target is T1, KRas^WT (Homo sapiens, UniProt P01116).
T1 construct: […]; biotin (biotinylated); purchased Accelegan Inc
The assay is described as follows: KRas binding assay (TR-FRET displacement of Cy5 labelled tracer). On the technique in general: TR-FRET usually uses a lanthanide donor and a delayed reading to cut background.
Experimental: as §6

The target of assay [3] is T2, KRas^G12R (Homo sapiens, UniProt P01116, G12R).
T2 construct: […]; biotin (biotinylated); purchased Accelegan Inc
The description is as above.
Experimental: as §6

The subject of assay [4] is MKN1 cells, pERK. The assay is described as follows: Inhibition of KRas phosphorylation of ERK (Cisbio HTRF Advanced pERK assay). Format: cell-based. To be noted: Homo sapiens, MKN-1, 3 h, read-out: Inhibition (HTRF IC50 nM) of KRas-mediated Phosphorylation of ERK, MKN1. An outline of the steps:
(§1)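 Cells were seeded overnight in RPMI with 10% FBS, then treated for 3 h at 37 °C with 10-dose, 3-fold compound titrations from 10 uM (0.8% DMSO final). After lysis at 4 °C, phospho-ERK was quantified by HTRF using d2- and cryptate-labelled antibodies; 0.2 uM trametinib served as minimum control.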

The subject of assay [5] is PSN1 cells, pERK. The description is as above. Format: cell-based. To be noted: Homo sapiens, PSN1, 3 h, read-out: Inhibition (HTRF IC50 nM) of KRas-mediated Phosphorylation of ERK, PSN1. Put shortly:
as §1

The target in assay [6] is T3, KRas^G12A (Homo sapiens, UniProt P01116, G12A).
T3 construct: […]; biotin (biotinylated); purchased Accelegan Inc
The assay is described as follows: KRas binding assay (TR-FRET displacement of Cy5 labelled tracer).
Experimental: as §6

For assay [7], the target named is KRas^G13D (Homo sapiens, UniProt P01116, G13D). The assay is described as follows: biochemical.
Experimental: as §6
The test system of assay [8] is NCI-H727 (G12V) cells, phospho-ERK. The assay is described as follows: Inhibition of KRas-mediated phosphorylation of ERK (phospho-ERK/GAPDH antibody detection, LI-COR). Format: cell-based. As to conditions: Homo sapiens, 3 hours. The method, then:
(§2) AsPC-1 (G12D, ATCC CRL-1682), A549 (G12S, ATCC CCL-185), HCT116 (G13D, ATCC CCL-247) cells were grown in DMEM medium supplemented with 10% fetal bovine serum and Penicillin/Streptomycin. NCI-H358 (G12C, ATCC CRL-5807), NCI-H460 (Q61H, ATCC HTB-117), NCI-H727 (G12V, ATCC CRL-5815), MKN1 (WTdep, JCRB JCRB0252), PSN-1 (G12R, ATCC CRM-CRL-3211) cells were grown in RPMI medium supplemented with 10% fetal bovine serum, 10 mM HEPES, 10 mM Sodium Pyruvate, and Penicillin/Streptomycin. Cells were plated in black well clear bottom tissue culture treated 96 well plates (Corning, 3904) at a density of 20,000 cells/well and allowed to attach for 12-14 hours. Diluted compounds were then added in a final concentration of 0.5% DMSO. After 3 hours, 50 μL of 4.0% formaldehyde was added and the plates incubated at room temperature for 20 minutes. The plates were then dumped and permeabilized with 150 μL of ice cold 100% methanol for 10 minutes. Non-specific antibody binding to the plates was blocked using 100 μL Odyssey blocking buffer (LI-COR Biosciences, 927-60010) for 1 hour at room temperature.
(§3) The amount of phospho-ERK was determined using an antibody specific for the phosphorylated form of ERK and compared to the amount of GAPDH. Primary antibodies used for the detection were added as follows: Phospho-ERK (Cell Signaling CS-9101) diluted 1:500 and GAPDH (Millipore MAB374) diluted 1:5000 in Odyssey blocking buffer+0.05% Tween 20. The plates were incubated overnight at 4 C. The plates were washed 3× with 150 uL PBS+0.1% Tween 20.
(§4) Secondary antibodies used to visualize primary antibodies were added as follows: Goat Anti-Rabbit-800 (LI-COR, 926-32211) and Goat Anti-Mouse-680 (LI-COR, 926-68070) diluted 1:800 both in Odyssey blocking buffer+0.05% Tween 20 and were incubated for 1 hour at room temperature. The plates were washed 3× with 150 uL PBS+[…]. Plates were imaged dry on a Li—COR Odyssey CLX plate reader.
(§5) The phospho-ERK (Thr202/Tyr204) signal was normalized to the GAPDH signal for each well and percent of DMSO control values were calculated. IC50 values were generated using a 4-parameter fit of the dose response curve.

Assay [9] concerns AsPC-1 (G12D) cells, phospho-ERK. The assay is described as above. Format: cell-based. As to conditions: Homo sapiens, ASPC1, 3 hours. On the procedure:
as §2, §3, §4, §5

Assay [10] concerns NCI-H460 (Q61H) cells, phospho-ERK. Described as above. Format: cell-based. As to conditions: Homo sapiens, 3 hours. The method, then: as §2, §3, §4, §5
Assay [11] concerns the target T4, KRas^G12D (Homo sapiens, UniProt P01116, G12D).
T4 construct: […]; biotin (biotinylated); purchased Accelegan Inc
The assay is described as follows: KRas binding assay (TR-FRET displacement of Cy5 labelled tracer).
Experimental: as §6

Assay [12] deals with T5, KRas^G12S (Homo sapiens, UniProt P01116, G12S).
T5 construct: […]; biotin (biotinylated); purchased Accelegan Inc
The assay is described as above.
Experimental: as §6

Assay [13] has as its target T6, KRas^G12V (Homo sapiens, UniProt P01116, G12V).
T6 construct: […]; biotin (biotinylated); purchased Accelegan Inc
The assay is described as above.
Experimental: as §6

The target of assay [14] is KRas^G12C (Homo sapiens, UniProt P01116, G12C). The assay is described as follows: biochemical.
Sequence of KRas^G12C (P01116 1-169 isoform P01116-2 G12C): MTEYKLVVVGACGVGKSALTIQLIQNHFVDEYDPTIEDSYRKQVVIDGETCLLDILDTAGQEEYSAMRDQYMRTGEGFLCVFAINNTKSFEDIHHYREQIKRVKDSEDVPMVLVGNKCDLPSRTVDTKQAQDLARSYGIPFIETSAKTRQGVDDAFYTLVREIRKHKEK
Experimental: as §6

T2 sequence (P01116 1-169 isoform P01116-2 G12R): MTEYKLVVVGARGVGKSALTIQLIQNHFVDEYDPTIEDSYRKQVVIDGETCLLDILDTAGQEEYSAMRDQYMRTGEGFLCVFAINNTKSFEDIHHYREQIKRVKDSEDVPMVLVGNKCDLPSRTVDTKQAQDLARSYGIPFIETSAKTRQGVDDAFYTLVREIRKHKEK
T6 sequence (P01116 1-169 isoform P01116-2 G12V): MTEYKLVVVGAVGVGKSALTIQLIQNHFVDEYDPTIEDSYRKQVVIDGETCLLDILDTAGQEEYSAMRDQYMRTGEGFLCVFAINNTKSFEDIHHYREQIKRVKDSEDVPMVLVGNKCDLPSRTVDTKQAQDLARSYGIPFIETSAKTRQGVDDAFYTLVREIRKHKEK
T4 sequence (P01116 1-169 isoform P01116-2 G12D): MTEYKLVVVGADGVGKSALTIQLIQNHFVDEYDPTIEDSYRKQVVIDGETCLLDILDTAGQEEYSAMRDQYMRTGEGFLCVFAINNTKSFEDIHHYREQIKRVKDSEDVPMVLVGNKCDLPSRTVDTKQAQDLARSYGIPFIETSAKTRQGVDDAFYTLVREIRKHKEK
Sequence of KRas^Q61H (P01116 1-169 isoform P01116-2 Q61H): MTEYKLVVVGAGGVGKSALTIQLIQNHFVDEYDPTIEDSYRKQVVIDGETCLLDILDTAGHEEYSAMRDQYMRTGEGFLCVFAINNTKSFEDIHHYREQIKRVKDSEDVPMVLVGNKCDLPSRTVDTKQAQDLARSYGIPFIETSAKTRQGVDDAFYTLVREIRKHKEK
T5 sequence (P01116 1-169 isoform P01116-2 G12S): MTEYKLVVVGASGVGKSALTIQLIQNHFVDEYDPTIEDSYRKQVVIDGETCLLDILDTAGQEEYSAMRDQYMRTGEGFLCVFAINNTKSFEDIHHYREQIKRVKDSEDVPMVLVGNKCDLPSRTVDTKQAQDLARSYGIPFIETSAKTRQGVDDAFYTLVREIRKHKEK
Sequence of KRas^G13D (P01116 1-169 isoform P01116-2 G13D): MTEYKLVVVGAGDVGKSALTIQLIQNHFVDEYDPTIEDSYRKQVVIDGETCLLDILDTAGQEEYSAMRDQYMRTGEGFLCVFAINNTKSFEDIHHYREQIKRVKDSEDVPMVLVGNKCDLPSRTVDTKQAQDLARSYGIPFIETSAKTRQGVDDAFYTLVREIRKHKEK
T3 sequence (P01116 1-169 isoform P01116-2 G12A): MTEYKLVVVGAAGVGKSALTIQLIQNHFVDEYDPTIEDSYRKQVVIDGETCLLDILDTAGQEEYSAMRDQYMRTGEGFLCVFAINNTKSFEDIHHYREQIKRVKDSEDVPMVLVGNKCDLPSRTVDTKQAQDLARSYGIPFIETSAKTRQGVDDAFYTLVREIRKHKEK
T1 sequence (P01116 1-169 isoform P01116-2): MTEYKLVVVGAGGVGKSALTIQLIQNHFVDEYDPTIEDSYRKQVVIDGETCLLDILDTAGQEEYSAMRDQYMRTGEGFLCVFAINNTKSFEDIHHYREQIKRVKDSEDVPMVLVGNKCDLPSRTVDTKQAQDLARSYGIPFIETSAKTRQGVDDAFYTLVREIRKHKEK

Regarding `CCc1c(F)ccc2cc(O)cc(N3CCc4c(nc(OC[C@@]56CCCN5C[C@H](F)C6)nc4N4CCCC(c5ncn[nH]5)C4)C3)c12` (stereo partly drawn) [Example 19, 4-(4-(3-(1H-1,2,4-triazol-5-yl)piperidin-1-yl)-2-(((2R,7aS)-2-fluorotetrahydro-1H-pyrrolizin-7a(5H)-yl)methoxy)-5,8-dihydropyrido[3,4-d]pyrimidin-7(6H)-yl)-5-ethyl-6-fluoronaphthalen-2-ol], the half-maximal inhibitory concentration (IC50) in assay [1] was 9 nM; in [2] it was 8 nM; in [3], 4 nM; in [4], 389 nM; in assay [5] it was not below 10000 nM; in assay [6], 4 nM. Further, the half-inhibitory concentration (IC50) in assay [7] turned out to be 11 nM; in assay [8], 2930 nM; in assay [9], 2680 nM; in assay [10], 1290 nM; in [11], 26 nM; in [12], 9 nM. Further, the concentration for half-maximal inhibition (IC50) came out at 6 nM in assay [13] and 5 nM in assay [14].

Take `CCc1c(F)ccc2cc(O)cc(N3CCc4c(nc(OC[C@@]56CCCN5C[C@H](F)C6)nc4N4CCCC(O)C4)C3)c12` (stereo partly drawn) [Example 27, 1-(7-(8-ethyl-7-fluoro-3-hydroxynaphthalen-1-yl)-2-(((2R,7aS)-2-fluorohexahydro-1H-pyrrolizin-7a-yl)methoxy)-5,6,7,8-tetrahydropyrido[3,4-d]pyrimidin-4-yl)piperidin-3-ol]: the IC50 in assay [3] was not above 2 nM; in [4], 9 nM; in [5], 2720 nM; in assay [8], 549 nM; in assay [9], 808 nM; in assay [10] it was 282 nM. For the same compound, the IC50 in [11] and in [13] was not above 2 nM in each case.

Regarding `CCc1c(F)ccc2cc(O)cc(N3CCc4c(nc(OC[C@@]56CCCN5C[C@H](F)C6)nc4N4CCCCC(S(C)(=O)=O)C4)C3)c12` (stereo partly drawn) [Example 28, 5-ethyl-6-fluoro-4-(2-(((2R,7aS)-2-fluorohexahydro-1H-pyrrolizin-7a-yl)methoxy)-4-(3-(methylsulfonyl)azepan-1-yl)-5,6-dihydropyrido[3,4-d]pyrimidin-7(8H)-yl)naphthalen-2-ol], the IC50 in [3] was not above 2 nM; in assay [4], 36 nM; in assay [5], not below 10000 nM; in [8], 987 nM; in [9], 1010 nM; in [10], 494 nM. In addition, the IC50 in assay [11] and in assay [13] was not above 2 nM in each case.

For the compound `CCc1c(F)ccc2cc(O)cc(N3CCc4c(nc(OC[C@@]56CCCN5C[C@H](F)C6)nc4NCc4ccc5nncn5c4)C3)c12` [Example 31, 4-(4-(([1,2,4]triazolo[4,3-a]pyridin-6-ylmethyl)amino)-2-(((2R,7aS)-2-fluorohexahydro-1H-pyrrolizin-7a-yl)methoxy)-5,6-dihydropyrido[3,4-d]pyrimidin-7(8H)-yl)-5-ethyl-6-fluoronaphthalen-2-ol], the half-maximal inhibitory concentration (IC50) in assay [3] was not above 2 nM; in [4], 637 nM; in [5] it was not below 10000 nM; in assay [8] it was 3320 nM; in [9], 3540 nM; in assay [10] it was more than 10000 nM. Further, the IC50 in assay [11] is 31 nM; in assay [13], not above 2 nM.

In the case of `CCc1c(F)ccc2cc(O)cc(N3CCc4c(nc(OC[C@@]56CCCN5C[C@H](F)C6)nc4N4CCCC(O)(C(F)F)C4)C3)c12` (stereo partly drawn) [Example 32, 3-(difluoromethyl)-1-(7-(8-ethyl-7-fluoro-3-hydroxynaphthalen-1-yl)-2-(((2R,7aS)-2-fluorohexahydro-1H-pyrrolizin-7a-yl)methoxy)-5,6,7,8-tetrahydropyrido[3,4-d]pyrimidin-4-yl)piperidin-3-ol], the 50% inhibitory concentration (IC50) in assay [3] was 3 nM; in assay [4] it was 31 nM; in assay [5], 1540 nM; in assay [8], 1090 nM; in assay [9], 624 nM; in assay [10] it was 381 nM. Also, the IC50 in [11] and in [13] was not above 2 nM each time.

`CCc1c(F)ccc2cc(O)cc(N3CCc4c(nc(OC[C@@]56CCCN5C[C@H](F)C6)nc4N4CCC(O)C(CO)CC4)C3)c12` (stereo partly drawn) [Example 33, 1-(7-(8-ethyl-7-fluoro-3-hydroxynaphthalen-1-yl)-2-(((2R,7aS)-2-fluorohexahydro-1H-pyrrolizin-7a-yl)methoxy)-5,6,7,8-tetrahydropyrido[3,4-d]pyrimidin-4-yl)-5-(hydroxymethyl)azepan-4-ol]: the IC50 in assay [3] was not above 2 nM; in [4] it was 11 nM; in assay [5], not below 10000 nM; in assay [8], 1860 nM; in assay [9], 1360 nM; in [10], 398 nM. The concentration for half-maximal inhibition (IC50) in assay [11] was 5 nM; in assay [13] it was not above 2 nM.

On to `CCc1c(F)ccc2cc(O)cc(N3CCc4c(nc(OC[C@@]56CCCN5C[C@H](F)C6)nc4N4CC5CC(O)CC4C5)C3)c12` (stereo partly drawn) [Example 35, 6-(7-(8-ethyl-7-fluoro-3-hydroxynaphthalen-1-yl)-2-(((2R,7aS)-2-fluorohexahydro-1H-pyrrolizin-7a-yl)methoxy)-5,6,7,8-tetrahydropyrido[3,4-d]pyrimidin-4-yl)-6-azabicyclo[3.2.1]octan-3-ol], for which the concentration for half-maximal inhibition (IC50) in assay [3] is not above 2 nM; in assay [4], 159 nM; in assay [5], 5720 nM; in assay [8], 1620 nM; in assay [9], 2360 nM; in assay [10], 1430 nM. Besides, the results for the concentration for half-maximal inhibition (IC50) in assay [11] and in [13] were 7 nM and 52 nM, respectively.

As for `CCc1c(F)ccc2cc(O)cc(N3CCc4c(nc(OC[C@@]56CCCN5C[C@H](F)C6)nc4N4CCCCCC(S(C)(=O)=O)C4)C3)c12` (stereo partly drawn) [Example 36, 5-ethyl-6-fluoro-4-(2-(((2R,7aS)-2-fluorotetrahydro-1H-pyrrolizin-7a(5H)-yl)methoxy)-4-(3-(methylsulfonyl)azocan-1-yl)-5,8-dihydropyrido[3,4-d]pyrimidin-7(6H)-yl)naphthalen-2-ol], the IC50 in assay [3] was 5 nM; in [4] it was 37 nM; in assay [5], not below 10000 nM; in assay [8], 1730 nM; in [9] it was 1760 nM; in assay [10] it was 731 nM. Also, the half-inhibitory concentration (IC50) was 5 nM in assay [11] and not above 2 nM in assay [13].

For the compound `CCc1c(F)ccc2cc(O)cc(N3CCc4c(nc(OC[C@@]56CCCN5C[C@H](F)C6)nc4N4CCCC(n5cccn5)C4)C3)c12` (stereo partly drawn) [Example 67, 4-(4-(3-(1H-pyrazol-1-yl)piperidin-1-yl)-2-(((2R,7aS)-2-fluorohexahydro-1H-pyrrolizin-7a-yl)methoxy)-5,6-dihydropyrido[3,4-d]pyrimidin-7(8H)-yl)-5-ethyl-6-fluoronaphthalen-2-ol], the IC50 in [3] was not above 2 nM; in assay [4], 112 nM; in assay [5] it was not below 10000 nM; in assay [8], 876 nM; in assay [9], 1570 nM; in assay [10], 225 nM. Further, the concentration for half-maximal inhibition (IC50) is 11 nM in [11] and 7 nM in [13].

For orientation: IC50 means the concentration that gives 50% inhibition.
